Reference: publication PMC3172300, “Modulation of Catalytic Activity in Multi-Domain Protein Tyrosine Phosphatases” (PLoS ONE, 2011)
Values joined by “and” are separate entries in the source; they are usually repeats but may differ in a detail not shown here. Identical values can stand only once.

Columns and labels:
[1] = target: T1, DLAR D1D2 (Drosophila melanogaster, UniProt P16621); assay: Phosphatase assay using pNPP, DLAR D1D2; type: biochemical; details: 2 mM DTT
T1 construct: DLAR 1448-2029; His tag (pET-15b or pET-22b); made in house; host or cells: E. coli BL21(DE3)
T1 sequence (P16621 1448-2029): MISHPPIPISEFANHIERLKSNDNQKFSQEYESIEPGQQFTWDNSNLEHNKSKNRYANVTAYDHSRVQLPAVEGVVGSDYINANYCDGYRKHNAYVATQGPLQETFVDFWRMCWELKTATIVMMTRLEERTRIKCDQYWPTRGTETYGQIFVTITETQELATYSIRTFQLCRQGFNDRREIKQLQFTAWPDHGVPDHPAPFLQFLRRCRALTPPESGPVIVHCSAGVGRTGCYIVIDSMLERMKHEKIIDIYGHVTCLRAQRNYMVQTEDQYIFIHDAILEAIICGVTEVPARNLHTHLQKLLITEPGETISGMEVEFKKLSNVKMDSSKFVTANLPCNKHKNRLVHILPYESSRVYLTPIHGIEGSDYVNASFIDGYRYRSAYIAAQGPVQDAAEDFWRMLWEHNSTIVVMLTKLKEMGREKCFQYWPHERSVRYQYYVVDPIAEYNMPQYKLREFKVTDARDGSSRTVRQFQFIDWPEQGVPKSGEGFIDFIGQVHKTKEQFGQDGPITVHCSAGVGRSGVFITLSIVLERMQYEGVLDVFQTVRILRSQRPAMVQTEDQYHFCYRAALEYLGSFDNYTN
Experimental: (§1) Phosphatase activity of the recombinant PTP domains was determined by using para-Nitrophenylphosphate (pNPP), a small molecule generic substrate, as well as phosphotyrosine containing peptides. The pNPP assay was performed as reported previously, with a modification in the buffer composition (25 mM Citrate, Glycine and HEPES (CGH), pH 6.5, 100 mM NaCl and 2 mM DTT). Phosphatase activity with the phosphotyrosine peptides was ascertained by the malachite green reaction as described for PTPs previously. Briefly, the reaction mixture comprised of 0.01 µM protein incubated with increasing concentrations of different peptides in 25 mM citrate buffer pH 6.0, 100 mM NaCl and 2 mM DTT for 15 min at 25°C. The reaction was stopped by the addition of the Biomol Green reagent (Enzo Life Sciences) and the colour developed after 20 min was quantified at 650 nm. For all the assays, kinetic constants for the steady state catalysis were obtained by fitting the reaction curves to the Michaelis-Menten equation using the nonlinear regression module of Sigma plot software (Systat Software, Inc.).
(§2) The tandem PTP domains of PTP99A (PTP99A D1D2) and DLAR (DLAR D1D2) , the individual PTP domains (D1 and D2) as well as the active site mutants were expressed in E. coli and were purified using the protocols described earlier (Figure 1a, Figure S1a, b & c). The biochemical characterization and catalytic activity measurements were performed using pNPP as a substrate. […] Thus the D2 domain appears to have a regulatory role in both RPTPs- decreasing the catalytic activity in the case of DLAR while increasing the catalytic activity in the case of PTP99A (Figure 1b).

[2] = target: T2, PTP99A D1D2 (Drosophila melanogaster, UniProt P35832); assay: Phosphatase assay using pNPP, PTP99A D1D2; type: biochemical; design: PTP99A 450-1050; His tag (pET-15b or pET-22b); made in house; host or cells: E. coli BL21(DE3); details: CGH buffer pH 6.5, 100 mM NaCl, 2 mM DTT
T2 sequence (P35832 450-1050): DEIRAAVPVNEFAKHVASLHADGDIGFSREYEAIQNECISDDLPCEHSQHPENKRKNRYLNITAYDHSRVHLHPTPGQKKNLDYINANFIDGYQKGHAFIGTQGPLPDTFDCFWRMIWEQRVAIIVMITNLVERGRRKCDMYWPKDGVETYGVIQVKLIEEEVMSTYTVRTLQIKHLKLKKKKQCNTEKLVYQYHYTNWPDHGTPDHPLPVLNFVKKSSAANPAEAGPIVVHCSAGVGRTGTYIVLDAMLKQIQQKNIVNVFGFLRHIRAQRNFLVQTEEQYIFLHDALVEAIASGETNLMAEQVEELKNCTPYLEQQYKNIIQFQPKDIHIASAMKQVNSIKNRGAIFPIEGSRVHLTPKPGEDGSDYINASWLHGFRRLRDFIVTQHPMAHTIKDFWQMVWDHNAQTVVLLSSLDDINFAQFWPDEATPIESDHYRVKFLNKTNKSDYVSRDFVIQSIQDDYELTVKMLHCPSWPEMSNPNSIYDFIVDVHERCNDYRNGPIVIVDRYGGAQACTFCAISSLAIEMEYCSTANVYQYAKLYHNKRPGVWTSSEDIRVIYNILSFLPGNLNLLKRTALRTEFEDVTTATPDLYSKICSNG
Experimental: as §1, §2

[3] = target: T3, DLAR D1 D2HSS (Drosophila melanogaster, UniProt P16621, C1961S); assay: Phosphatase assay using pNPP, DLAR D1 D2HSS; type: biochemical; details: CGH buffer pH 6.5, 100 mM NaCl, 2 mM DTT
T3 construct: DLAR 1448-2029; His tag (pET-15b or pET-22b); made in house; host or cells: E. coli BL21(DE3)
T3 sequence (P16621 1448-2029 C1961S): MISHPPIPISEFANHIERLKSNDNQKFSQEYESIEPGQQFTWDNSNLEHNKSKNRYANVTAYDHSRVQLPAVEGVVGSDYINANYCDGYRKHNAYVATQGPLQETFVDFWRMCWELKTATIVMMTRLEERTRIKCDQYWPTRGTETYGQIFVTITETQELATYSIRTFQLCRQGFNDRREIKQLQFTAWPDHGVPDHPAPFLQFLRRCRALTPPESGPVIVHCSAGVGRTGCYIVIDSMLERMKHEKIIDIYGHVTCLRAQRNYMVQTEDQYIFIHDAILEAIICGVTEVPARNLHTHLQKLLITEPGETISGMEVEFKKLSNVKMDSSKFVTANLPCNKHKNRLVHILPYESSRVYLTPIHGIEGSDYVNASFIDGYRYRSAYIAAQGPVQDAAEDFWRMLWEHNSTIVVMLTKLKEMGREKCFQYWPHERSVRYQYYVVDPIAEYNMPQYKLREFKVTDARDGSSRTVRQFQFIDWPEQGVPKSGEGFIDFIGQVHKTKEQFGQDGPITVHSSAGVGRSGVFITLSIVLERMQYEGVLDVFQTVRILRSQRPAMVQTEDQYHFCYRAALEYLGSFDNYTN
Experimental: as §1, §2

[4] = system: PTP99A D1 active site cysteine to serine mutant; assay: Phosphatase assay using pNPP, PTP99A D1 active site Cys to Ser mutant; type: biochemical, Drosophila melanogaster; details: active site cysteine to serine in D1
Source text: Cosmids containing the genes encoding RPTPs DLAR and PTP99A were a kind gift from Prof. Kai Zinn (Caltech). The PTP domains of PTP99A and DLAR were PCR amplified and ligated between the NheI and XhoI restriction sites of the bacterial expression vectors pET-15b and pET-22b. The active site mutants (with the nucleophilic cysteines in the PTP domains of DLAR and PTP99A mutated to serines) were obtained by using a single primer approach. An XbaI site was incorporated in the primers to aid screening of mutants. All clones were confirmed by sequencing (Macrogen Inc.). The details of the expression constructs are compiled in Table S1 and Figure 1a.
Phosphatase activity of the recombinant PTP domains was determined by using para-Nitrophenylphosphate (pNPP), a small molecule generic substrate, as well as phosphotyrosine containing peptides. The pNPP assay was performed as reported previously, with a modification in the buffer composition (25 mM Citrate, Glycine and HEPES (CGH), pH 6.5, 100 mM NaCl and 2 mM DTT). Phosphatase activity with the phosphotyrosine peptides was ascertained by the malachite green reaction as described for PTPs previously. […] The reaction was stopped by the addition of the Biomol Green reagent (Enzo Life Sciences) and the colour developed after 20 min was quantified at 650 nm. […]

O=[N+]([O-])c1ccc(OP(=O)(O)O)cc1 [pNPP, para-Nitrophenylphosphate]
Vmax ([1]; 25 mM Citrate, Glycine and HEPES (CGH), pH 6.5, 100 mM NaCl, Michaelis-Menten fit): 6.19 µmol/min/mg and 6.19 ± 0.14 µmol/min/mg
Kcat ([1]; CGH buffer pH 6.5, 100 mM NaCl): 6.88 ± 0.16 s⁻¹
Kcat/Km ([1]; CGH buffer pH 6.5, 100 mM NaCl): 3.23 ± 0.09 x 10^3 sec^-1M^-1
Kcat [2]: 33.80 ± 0.59 s⁻¹
Kcat/Km [2]: 14.92 ± 0.98 x 10^3 sec^-1M^-1
Vmax ([2]; Michaelis-Menten fit): 24.89 µmol/min/mg and 24.89 ± 0.52 µmol/min/mg
Kcat [3]: 6.49 ± 0.17 s⁻¹
Kcat/Km [3]: 1.97 ± 0.10 x 10^3 sec^-1M^-1
Vmax ([3]; Michaelis-Menten fit): 5.84 ± 0.15 µmol/min/mg
PTPase activity [4]: inactive enzyme
